According to article PMC10799935, “Discovery of a peripheral 5HT2A antagonist as a clinical candidate for metabolic dysfunction-associated steatohepatitis” (Nature Communications, 2024):
“Also recorded” adds a separate entry of the source.

Legend:
5HT2B (h) = molecular target: T1, 5HT2B (h) (Homo sapiens, UniProt P41595); assay: 5HT subtype antagonism assay (Eurofins Cerep): 5HT2B; format: cell-based
T1 construct: host or cells: CHO cells
Experimental: The derivatives were evaluated at a concentration of 1 μM for their antagonist activity on the 5HT2A receptor (Tables 1–3)[33],[34]. Human 5HT2A stably transfected HEK293 cells (a type of cell derived from kidney embryos)[20] were seeded in a 96-well plate (Costar; 3603) at a density of 9 × 10^4 in 100 μL of minimum essential medium (Welgene; LM007-86) containing 10% dialyzed fetal bovine serum (Gibco; 30067–334) and 1% penicillin/streptomycin (Gibco; 15140-122) and kept in a 37 °C incubator for 24 h. The cells were stained with 100 μL of cytosolic calcium dye using the FLIPR calcium 6 assay solution (Molecular devices, #R8190) supplemented with 2.5 mM probenecid (Sigma; P8761) and incubated for 1 h at 37 °C. After 1 h, the designated amount of the compound was treated in each well and incubated for another 1 h at 37 °C. Then, the cells were loaded in a Flexstation 3 microplate reader (Molecular Devices; FlexStaion) and 50 μL of 5 μM 5HT (serotonin hydrochloride, Sigma; H9523) was injected from a source plate (Nunc 96-well polystyrene conical bottom MicroWell Plate, Thermo; 249662) and the fluorescence intensity (Ex/Em-485nm/ 525 nm) was measured. […]
Antagonism assay Source Stimulus Incubation Measured Detection Method […]

STZ+HFD mice = STZ+HFD mice (modified STAM) NASH and liver fibrosis model; format: in vivo, mouse
Experimental: Mice were intraperitoneally injected with low-dose streptozotocin (40 mg/kg; 5 times) in 7-week-old mice. After injection with STZ, mice were fed an HFD for 16 weeks to induce NASH and liver fibrosis. After 16 weeks of an HFD, mice were fed a standard chow diet to mimic the NASH patient under […]
nine weeks by oral gavage (Reviewer-only data 4). […]
inflammation, hepatocyte ballooning, and total NAFLD activity score by the NASH CRN histological scoring system (Reviewer-only data 4B, C). […]
hepatic fibrosis stage similar to STZ+HFD mice treated with OCA (Reveiwer-only data 4D, E). STZ+HFD mice […]
function (Reviwer-only data 4F). […]
group (Reviewer-only data 4G). Furthermore, the expression of genes related to lipogenesis and fibrosis was reduced in the compound 11c-treated group in a dose-dependent manner (Reviewer-only data 4H, I). These […]
Reviewer-only Data 4. Compound 11c treatment with dietary modification ameliorates NASH and liver fibrosis in a dose-dependent manner. (A) Experimental scheme for in vivo efficacy of compound 11c in […]
(STZ+HFD mice. (B-I) STZ+HFD mice fed HFD for 16 weeks were switched to SCD for 9 weeks and were treated with vehicle, compound 11c, or OCA by daily oral gavage. (B) Representative liver histology by H&E staining […]
mg/kg. Scale bars, 100µm. […]
mice; n = 9 per group. (D) Representative liver histology by Masson’s trichrome staining from vehicle, […]
Scale bars, 100µm. (E) Fibrosis stage
(F) Serum AST and ALT levels; n = 9 per […]
group. (G) Serum TG levels and hepatic TG levels; n = 9 per group. (H) Relative mRNA expression of lipogenesis-related genes as assessed by qRT-PCR in the liver; n = 9 per group. (I) Relative mRNA expression of fibrosis-related genes as assessed by qRT-PCR in the liver; n = 9 per group. Data are expressed as the means ±SEM.
[…], **P<0.01, one-way ANOVA with post hoc Tukey’s test (C, E, F, G, H, I). […]
Representative liver histology by Masson’s trichrome staining and Sirius Red staining. Scale bars, 100µm. (E) […]
one-way ANOVA with post hoc Tukey’s test (C, E).
Comment 2: In "Methods", the author claims to use HEK293 cells (a type of cell derived from kidney embryos) for cell research, however, the data in Table 5 are the results of hepatocyte experiments. What happened? Response: We appreciate the Reviewer’s comment. HEK293 cells were used for inhibition assay (cell research), shown in Table 1-3 of the main manuscript, while, hepatic cell lines were used for chemical profiling and for “Hepatocyte stability” test, shown in Table 5 of the main manuscript. The “Selectivity” of Compound 11c for different 5HT subtypes is elucidated in response to Comment 6.
We have modified the Methods section to provide clarity.

T1 sequence (P41595 whole entry): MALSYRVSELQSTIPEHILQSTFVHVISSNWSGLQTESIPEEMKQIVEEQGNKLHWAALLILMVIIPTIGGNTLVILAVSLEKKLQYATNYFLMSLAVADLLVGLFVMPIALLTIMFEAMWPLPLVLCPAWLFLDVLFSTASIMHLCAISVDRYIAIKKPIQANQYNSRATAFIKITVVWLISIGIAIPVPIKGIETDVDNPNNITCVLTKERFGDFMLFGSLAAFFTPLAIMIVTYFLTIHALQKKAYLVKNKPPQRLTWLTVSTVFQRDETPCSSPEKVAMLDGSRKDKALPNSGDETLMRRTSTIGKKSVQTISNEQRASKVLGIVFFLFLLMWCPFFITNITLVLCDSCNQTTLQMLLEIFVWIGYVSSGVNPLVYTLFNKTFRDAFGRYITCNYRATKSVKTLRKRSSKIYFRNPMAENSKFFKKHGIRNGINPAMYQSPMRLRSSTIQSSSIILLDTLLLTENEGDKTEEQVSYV

Compound: Cc1nc2n(c(=O)c1CCN1CCC(=C3c4ccc(Cl)cc4CCc4cccnc43)CC1)CCCC2O (centres unmarked) [Compound 11c]
- Selectivity 2B: % inhibition (5HT2B (h); concentration not given): 94%
- IC50 (5HT2B (h); read-out: Selectivity 2B: IC50): 290 nM
- Hepatic triglyceride levels (STZ+HFD mice): reduced
- plasma AST and ALT levels (STZ+HFD mice): decreased
- fibrosis stage and total NAFLD activity score (STZ+HFD mice; 5 or 10 mg/kg daily oral gavage, nine weeks): effectively improved; also recorded: better than obeticholic acid
- hepatic fibrosis stage (STZ+HFD mice; 11c 5 or 10 mg/kg, OCA 10 mg/kg): improvement
- hepatic steatosis, lobular inflammation, hepatocyte ballooning, and total NAFLD activity score (STZ+HFD mice; NASH CRN scoring): improved
- expression of genes related to lipogenesis and fibrosis (STZ+HFD mice; dose-dependent manner): reduced
